Laboratory results as given in patent publication US20240415804A1, “METHOD OF TREATING PANCREATIC CANCER” (University of South Florida, priority 2022, published 2024).

Experiments:
[1] = test system: SHIP-1; assay: SHIP-1 gene and protein expression in OPC mice; type: in vivo, mouse; settings: API 25 mg/kg IP 3 times per week for 2-3 weeks, vs OPC mice
Method: The inventors reported recently that API reduced tumor growth in an orthotopic (O) mouse model of PC (OPC)^12, which is a more clinically relevant model^69. To investigate if API targets miR-155 and regulates SHIP-1 expression in the BM and tumor of an OPC mouse model, OPC mice were treated with API at a dose of 25 mg/kg (IP) 3 times per week for 2-3 weeks.
To generate orthotopic pancreatic models (OPC), anesthetized (1.5-3% isoflurane) mice were injected in the neck of the pancreas, via laparotomy^59, with sterile PBS (CTRL) or 1.25×10^4 Panc02 cells (OPC), in sterile 1×PBS. […]
Isolation of total RNA from digested pancreatic tumors and BM cells was performed using a RNeasy Mini Kit (Qiagen), according to the manufacturer's instructions. RT-PCR of quantified and normalized total RNA was performed using a High-Capacity cDNA RT Kit with an RNase Inhibitor (Applied Biosystems), according to the manufacturer's instructions. […]
Single-cell suspensions of BM, digested pancreatic tumors cells and UN-KC-6141 cells treated with API (40 μM) were lysed with radioimmunoprecipitation buffer (Sigma-Aldrich), quantified with a BCA Protein Assay kit (Thermo Fisher Scientific, Waltham, MA, USA), resolved by SDS-PAGE (Thermo Fisher Scientific) and transferred onto a nitrocellulose membrane as previously described. […]

[2] = test system: MDSC and macrophage subsets in the BM; assay: Flow cytometry of MDSC and macrophage subsets in the BM of KC-HPC mice; type: in vivo, mouse; settings: API 25 mg/kg IP
Source text: All female C57BL/6 mice (6-8 weeks of age) described in this study were purchased from Envigo (Indianapolis, IN, USA) and were acclimatize for one week in a pathogen-free animal facility (University of South Florida (USF) vivarium) before injections with PC cells. To generate heterotopic pancreatic cancer (HPC) models, mice were subcutaneously injected with 1.5×10^5 murine Panc02 (HPC mice) or 5×10^6 murine UN-KC-6141 cells (KC-HPC mice), in sterile 1× phosphate buffer saline (PBS), in the lower ventral abdomen, while control (CTRL) mice received sterile 1×PBS. Once tumors where palpable, API (25 mg/kg, 100 μL volume) treatments (HPC-API and KC-HPC-API), via intraperitoneal (IP) injections, were started while CTRL, HPC and KC-HPC mice received sterile PBS (vehicle) three times per week until the end of the study^12, 55. The HPC models were euthanized 21-28 days post-injection, while the KC-HPC models were euthanized 16-17 days post-injection. The femur and tibia were cut at the pelvic-hip joint and muscle was removed. The femurs and tibias were cut at the ends and flushed with a 30-gauge needle and 10 cc syringe filled with completed RPMI media until bone was white onto a petri dish. Pelleted bone marrow (BM) cells were treated with Red Blood Cell (RBC) lysis buffer (eBioscience, Waltham, MA, USA), according to the manufacturer's instructions, and then filtered through a […] nylon mesh cell strainer in 1×PBS. All pancreatic tumors were manually cut into ˜1-2 mm^3 fragments with a sterile razor blade and then enzymatically digested with Collagenase, type IV (Sigma-Aldrich), DNase, type IV (Sigma-Aldrich) and Hyaluronidase, Type V (Sigma-Aldrich) in Hank's Balanced Salt Solution for 1 h, spun down and washed as described in previous studies^61. Digested pancreatic tumor samples were treated with RBC lysis buffer and then filtered through a […] nylon mesh cell strainer in 1×PBS. Bone marrow and digested pancreatic tumor single cell suspensions were counted with a hemocytometer and then resuspended in 3% FBS/PBS. BM and digested pancreatic tumor cells (1×10^6) were Fc Blocked (anti-mouse CD16/CD32) and then surface stained for 30 min on ice protected from light with fluorescent anti-mouse antibodies including, CD11b-APC, Ly6C-PE/Cy7, Ly6G-PerCP, F4/80-BV650, MHC—II-BV605, CD206-FITC and CD40-PE/Cy5 along with isotype control antibodies (Biolegend, San Diego, CA, USA) to detect MDSC and macrophage subsets. Digested pancreatic tumor cells (1×10^6) were also Fc Blocked and then surface stained with fluorescent anti-mouse antibodies including CD3-FITC, CD8-PercP/Cy5.5, CD4-APC/Cy7, and CD40L-APC along with isotype control antibodies (Biolegend) to detect CD8^+ T cells. Subsequently, all samples were fixed with 2% paraformaldehyde for 15 min on ice protected from light. Acquisition of samples was performed using a flow cytometer BD LSRII (BD Biosciences Immunocytometry Systems). Data analysis was performed using FlowJo v10.8 software (TreeStar Inc.).

O=c1cc(-c2ccc(O)cc2)oc2cc(O)cc(O)c12 [API, 40,5,7-Trihydroxyflavone, 5,7-Dihydroxy-2-(4-hydroxyphenyl)-4-benzopyrone]
SHIP-1 gene expression in BM [1]: significantly increased | SHIP-1 protein expression in BM [1]: significantly increased | G-MDSC absolute cell numbers in BM ([2]; vs KC-HPC mice): significantly lowered | M1 macrophage percentages in BM ([2]; vs KC-HPC mice): significantly increased | M1 macrophages absolute cell numbers in BM ([2]; vs KC-HPC mice): no significant changes | M2 macrophage percentages in BM ([2]; vs KC-HPC mice): decreased | M2 macrophages absolute cell numbers in BM ([2]; vs KC-HPC mice): no significant changes | M-MDSC absolute cell numbers in BM ([2]; vs KC-HPC mice): significantly lowered | proportions of G-MDSCs in BM ([2]; vs vehicle treated KC-HPC mice): significantly reduced | proportions of M-MDSCs in BM ([2]; vs vehicle treated KC-HPC mice): without any significant change
